Source: patent US20100204275A1 (published 2010)
Where a name gives a salt, the structure may show the parent alone.

SMILES: CCC(=O)N(CC1CCNCC1)c1ccc2cc(OC)ccc2c1.O=C(O)C(F)(F)F
- melting point: 168 to 170 °C

SMILES: CCC(=O)N(CC1CCNCC1)c1ccc2cc(OCc3ccccc3)ccc2c1.O=C(O)C(F)(F)F
- melting point: 151 to 153 °C

SMILES: CCC(=O)N(CC1CCNCC1)c1cccc(Cl)c1 (as salt: salt)
- melting point: 94 to 96 °C

SMILES: COCC(=O)N(CC1CCNCC1)c1ccc(Cl)c(Cl)c1 (as salt: salt)
- melting point: 115 to 117 °C

SMILES: CCC(=O)N(CC1CCNCC1)c1ccccc1 (as salt: trifluoroacetic acid salt)
- melting point: 98 to 100 °C

SMILES: CCC(=O)N(CC1CCNCC1)c1ccccn1 (as salt: trifluoroacetic acid salt)
- melting point: 108 to 110 °C

SMILES: CCC(=O)N(CC1CCNCC1)c1ccc(Cl)cn1 (as salt: trifluoroacetic acid salt)
- melting point: 134 to 136 °C

SMILES: CC(=O)N(CC1CCNCC1)c1ccc(Cl)c(Cl)c1 (as salt: trifluoroacetic acid salt)
- melting point: 172 to 174 °C
